Values of other authors in patent publication US20220249637A1, “COMBINATION THERAPY OF A CELL-MEDIATED CYTOTOXIC THERAPY AND AN INHIBITOR OF A PROSURVIVAL BCL2 FAMILY PROTEIN” (Juno Therapeutics, Inc., priority 2019, published 2022).

How the values were obtained:
[1] = test system: CD3+CD4+ and CD3+CD8+ T cells; settings: mouse, in vivo; cited from earlier work
CD3+ cells = settings: human, in vivo; cited from earlier work

navitoclax
CD3+CD4+ and CD3+CD8+ T cells in the peripheral blood [1]: induced a relative and absolute reduction | average decrease of CD3+ cells (CD3+ cells): 241 cells/μL | decrease in T cells at final visits (CD3+ cells): maintained
